Columns and labels:
Test in all cases: NCI 60 cell-line test
Format in all cases: cell-based, human
OVCAR-4 = OVCAR-4 (Ovarian Cancer)
Protocol: (§1) Methodology: The NCI conducted a test of the MT103 drug against 60 human cell lines, with a minimum of five concentrations of MT103 at 10-fold dilutions. A 48 hour continuous drug exposure was used, and a sulforhodamine B (SRB) protein assay was used to estimate cell viability and growth. The human tumor cell lines of the cancer screening panel were grown in RPMI 1640 medium containing 5% fetal bovine serum and 2 mM L-glutamine. Cells were inoculated into 96 well microtiter plates in 100 μL at plating densities ranging from 5,000 to 40,000 cells/well depending on the doubling time of individual cell lines. After cell inoculation, the microtiter plates are incubated at 37° C., 5% CO2, 95% air, and 100% relative humidity for 24 h prior to addition of experimental drugs.
(§2) After 24 h, two plates of each cell line were fixed in situ with TCA, to represent a measurement of the cell population for each cell line at the time of drug addition (Tz). MT103 was solubilized in dimethyl sulfoxide at 400-fold the desired final maximum test concentration and stored frozen prior to use. At the time of drug addition, an aliquot of frozen concentrate was thawed and diluted to twice the desired final maximum test concentration with complete medium containing 50 μg/ml gentamicin. Additional four, 10-fold or ½ log serial dilutions were made to provide a total of five drug concentrations plus control. Aliquots of 100 μl of these different drug dilutions were added to the appropriate microtiter wells already containing 100 μl of medium, resulting in the required final drug concentrations.
(§3) Following drug addition, the plates were incubated for an additional 48 h at 37° C., 5% CO2, 95% air, and 100% relative humidity. For adherent cells, the assay was terminated by the addition of cold TCA. Cells were fixed in situ by the gentle addition of 50 μl of cold 50% (w/v) TCA (final concentration, 10% TCA) and incubated for 60 minutes at 4° C. The supernatant was discarded, and the plates were washed five times with tap water and air dried. Sulforhodamine B (SRB) solution (100 μl) at 0.4% (w/v) in 1% acetic acid was added to each well, and plates were incubated for 10 minutes at room temperature. After staining, unbound dye was removed by washing five times with 1% acetic acid and the plates were air-dried. Bound stain was subsequently solubilized with 10 mM trizma base, and the absorbance was read on an automated plate reader at a wavelength of 515 nm. For suspension cells, the methodology was the same except that the assay was terminated by fixing settled cells at the bottom of the wells by gently adding 50 μl of 80% TCA (final concentration, 16% TCA). Using the seven absorbance measurements (time zero, (Tz), control growth, (C), and test growth in the presence of drug at the five concentration levels (Ti)), the percentage growth was calculated at each of the drug concentrations levels. Percentage growth inhibition was calculated as:
(§4) [(Ti-Tz)/(C-Tz)]×100 for concentrations for which Ti>/=Tz
(§5) [(Ti-Tz)/Tz]×100 for concentrations for which Ti<Tz.
(§6) Three dose response parameters were calculated for each experimental agent. Growth inhibition of 50% (GI50) was calculated from [(Ti-Tz)/(C-Tz)]×100=50, which is the drug concentration resulting in a 50% reduction in the net protein increase (as measured by SRB staining) in control cells during the drug incubation. The drug concentration resulting in total growth inhibition (TGI) was calculated from Ti=Tz. The LC50 (concentration of drug resulting in a 50% reduction in the measured protein at the end of the drug treatment as compared to that at the beginning) indicating a net loss of cells following treatment was calculated from [(Ti-Tz)/Tz]×100=−50. Values were calculated for each of these three parameters if the level of activity is reached; however, if the effect was not reached or was exceeded, the value for that parameter was expressed as greater or less than the maximum or minimum concentration tested.

OVCAR-8 = OVCAR-8 (Ovarian Cancer)
Protocol: as §1, §2, §3, §4, §5, §6

SK-OV-3 = SK-OV-3 (Ovarian Cancer)
Protocol: as §1, §2, §3, §4, §5, §6

HOP-92 = tested on: HOP-92
Protocol: as §1, §2, §3, §4, §5, §6

SF-268 = SF-268 (CNS Cancer)
Protocol: as §1, §2, §3, §4, §5, §6

SF-295 = SF-295 (CNS Cancer)
Protocol: as §1, §2, §3, §4, §5, §6

HCT-15 = HCT-15 (Colon Cancer)
Protocol: as §1, §2, §3, §4, §5, §6

SW-620 = SW-620 (Colon Cancer)
Protocol: as §1, §2, §3, §4, §5, §6

SK-MEL-28 = SK-MEL-28 (Melanoma)
Protocol: as §1, §2, §3, §4, §5, §6

NCI-H522 = NCI-H522 (Non-Small Cell Lung Cancer)
Protocol: as §1, §2, §3, §4, §5, §6

MCF7 = MCF7 (Breast Cancer)
Protocol: as §1, §2, §3, §4, §5, §6

UO-31 = UO-31 (Renal Cancer)
Protocol: as §1, §2, §3, §4, §5, §6

CAKI-1 = CAKI-1 (Renal Cancer)
Protocol: as §1, §2, §3, §4, §5, §6

NCI-H322M = NCI-H322M (Non-Small Cell Lung Cancer)
Protocol: as §1, §2, §3, §4, §5, §6

[1] = read-out: LC50 (the source's name)

CC1(C)C2CC[C@@]1(CS(=O)(=O)N(C1CCCCC1)C1CCCCC1)C(O)C2 (stereo partly shown) [MT103]
TGI (OVCAR-4): >1.00E−04 | IC50 (OVCAR-4; read-out: G150): 30.2 µM | CC50 (OVCAR-4; [1]): > 100 µM | TGI (OVCAR-8): >1.00E−04 | IC50 (OVCAR-8; read-out: G150): 25.3 µM | CC50 (OVCAR-8; [1]): > 100 µM | TGI (SK-OV-3): >1.00E−04 | IC50 (SK-OV-3; read-out: G150): 83.2 µM | CC50 (SK-OV-3; [1]): > 100 µM | TGI (HOP-92; HOP-92 (Non-Small Cell Lung Cancer)): 3.16E−05 | IC50 (HOP-92; HOP-92 (Non-Small Cell Lung Cancer), read-out: G150): 2750 nM | CC50 (HOP-92; HOP-92 (Non-Small Cell Lung Cancer), read-out: LC50 (the source's name)): > 100 µM | −logGI50 value (HOP-92; HOP-92, as tested by the NCI, FIG. 1): 5.6 | TGI (SF-268): >1.00E−04 | IC50 (SF-268; read-out: G150): 35.8 µM | CC50 (SF-268; [1]): > 100 µM | TGI (SF-295): >1.00E−04 | IC50 (SF-295; read-out: G150): 22.6 µM | CC50 (SF-295; [1]): > 100 µM | TGI (HCT-15): >1.00E−04 | IC50 (HCT-15; read-out: G150): 25.7 µM | CC50 (HCT-15; [1]): > 100 µM | TGI (SW-620): >1.00E−04 | IC50 (SW-620; read-out: G150): 28.8 µM | CC50 (SW-620; [1]): > 100 µM | TGI (SK-MEL-28): >1.00E−04 | IC50 (SK-MEL-28; read-out: G150): 50.7 µM | CC50 (SK-MEL-28; [1]): > 100 µM | TGI (NCI-H522): 5.50E−05 | IC50 (NCI-H522; read-out: G150): 21.5 µM | CC50 (NCI-H522; [1]): > 100 µM | TGI (MCF7): 9.05E−05 | IC50 (MCF7; read-out: G150): 20.6 µM | CC50 (MCF7; [1]): > 100 µM | TGI (UO-31): 8.94E−05 | IC50 (UO-31; read-out: G150): 28 µM | CC50 (UO-31; [1]): > 100 µM | TGI (CAKI-1): 9.05E−05 | IC50 (CAKI-1; read-out: G150): 23.5 µM | CC50 (CAKI-1; [1]): > 100 µM | TGI (NCI-H322M): >1.00E−04 | IC50 (NCI-H322M; read-out: G150): 27.3 µM | CC50 (NCI-H322M; [1]): > 100 µM

— US20040266732A1, “Therapeutic agents, methods, and treatments” (priority 2002, published 2004)
